Results: publication PMC5056380, “Characterization of WY 14,643 and its Complex with Aldose Reductase” (Scientific Reports, 2016)
Where two headings read alike, the source gives them in different places. Each block holds one compound with its values, some of them ahead of it.

Legend:
[1] = target: T1, human Aldose reductase (hAR) (Homo sapiens, UniProt P15121); experiment: Fluorescence titration (quenching) of cofactor binding to hAR; details: for Kd: 0.5 μM protein
T1 construct: hexa-His (cleaved yes); made in house; host or cells: E. coli BL21
Protocol: (§1) The fluorescence intensities of hAR decreased gradually when the concentrations of quenchers (i.e. inhibitor and cofactors) were increased. The observed fluorescence data were used for calculating the fluorescence quenching (Q% = (F^0 − F)/F^0) where F is the measured fluorescence and F^0 is the fluorescence in the absence of quenchers.
(§2) Fluorescence titration was performed for the binding of NADPH to hAR at a protein concentration of 0.5 μM in 5 mM sodium phosphate buffer (pH 7.0) containing 100 μM DTT. The titration for NADP^+ binding to hAR was conducted at a protein concentration of 0.5 μM in 10 mM Tris-HCl buffer (pH 9.0) containing 100 μM DTT in 1.4 ml quartz cuvette by measuring fluorescence by SpectraMax M2 (Molecular Device, CA). The concentration of protein•NADP^+/NADPH complexes formed were measured by extensive quenching of protein fluorescence by varying the concentrations of NADP^+/NADPH at excitation and emission wavelengths of 295 and 365 nm, respectively following the procedure described by[43][44]. This method was extended for inhibitor (WY 14,643) binding to enzyme•NADPH complex at protein concentration of 0.5 μM in 5 mM sodium phosphate buffer (pH 7.0) containing 100 μM DTT by keeping saturated fixed 60 μM concentration of NADPH and by varying the concentrations of WY 14,643. The binding of inhibitor (WY 14,643) to enzyme•NADP^+ complex was measured at 0.5 μM protein concentration in 10 mM Tris-HCl buffer (pH 9.0) containing 100 μM DTT by keeping saturated fixed 60 μM concentration of NADP^+ and varying the WY 14,643. The concentrations of enzyme•NADP^+/NADPH•inhibitor complex formed were measured by quenching of fluorescence protein•NADP^+/NADPH complexes with excitation and emission wavelengths 295 and 365 nm, respectively.
The methodology described by van de Weert 2010 was followed in the binding constant determination. The fractional saturation (α) of protein by cofactors (NADP^+/NADPH) and by inhibitor (WY 14,643) binding to protein can be expressed in the form of fluorescence as follows;
The binding dissociation constants and stoichiometry for the binding of quenchers (cofactors and inhibitor) to protein were calculated by non-linear fitting to the experimental fluorescence data and results are shown in Table 1.

hAR•NADP^+ = target: T2, hAR•NADP^+ (Homo sapiens, UniProt P15121); experiment: Fluorescence titration of inhibitor binding to the hAR•NADP^+ binary complex; details: 60 μM NADP^+, 10 mM Tris-HCl pH 9.0
T2 construct: hexa-His (cleaved yes); made in house; host or cells: E. coli BL21
Protocol: as §1
as §2, with “This method was extended for inhibitor (WY 14,643) binding to enzyme•NADPH complex at protein concentration of 0.5 μM in 5 mM sodium phosphate buffer (pH 7.0) containing 100 μM DTT by keeping saturated fixed 60 μM concentration of NADPH and by varying the concentrations of WY 14,643.” left out, “The concentrations of enzyme•NADP^+/NADPH•inhibitor complex formed were measured by quenching of fluorescence protein•NADP^+/NADPH complexes with excitation and emission wavelengths 295 and 365 nm, respectively.” left out

hAR•NADPH = target: T3, hAR•NADPH (Homo sapiens, UniProt P15121); experiment: Fluorescence titration of inhibitor binding to the hAR•NADPH binary complex; details: 60 μM NADPH, 5 mM sodium phosphate pH 7.0
T3 construct: hexa-His (cleaved yes); made in house; host or cells: E. coli BL21
Protocol: as §1
as §2, with “This method was extended for inhibitor (WY 14,643) binding to enzyme•NADPH complex at protein concentration of 0.5 μM in 5 mM sodium phosphate buffer (pH 7.0) containing 100 μM DTT by keeping saturated fixed 60 μM concentration of NADPH and by varying the concentrations of WY 14,643.” left out, “The concentrations of enzyme•NADP^+/NADPH•inhibitor complex formed were measured by quenching of fluorescence protein•NADP^+/NADPH complexes with excitation and emission wavelengths 295 and 365 nm, respectively.” left out

[2] = target: T1, human Aldose reductase (hAR); set-up: method as in PMID 17194029; details: cited from earlier work
rat livers = test system: rat livers; set-up: method as in PMID 195342; details: cited from earlier work

Kd ([1]; NADPH binding to apo hAR, 5 mM sodium phosphate pH 7.0, 100 μM DTT, read-out: Kd(E-NADPH), equilibrium dissociation constant): 480 ± 40 nM
stoichiometry coefficient (n), E-NADPH ([1]; NADPH binding to apo hAR, 5 mM sodium phosphate pH 7.0): 1.25 ± 0.1
Compound: NC(=O)C1=CN([C@@H]2O[C@H](COP(=O)(O)OP(=O)(O)OC[C@H]3O[C@@H](n4cnc5c(N)ncnc54)[C@H](OP(=O)(O)O)[C@@H]3O)[C@@H](O)[C@H]2O)C=CC1 [NADPH]

Kd ([1]; NADP^+ binding to apo hAR, 10 mM Tris-HCl pH 9.0, 100 μM DTT, read-out: Kd(E-NADP^+), equilibrium dissociation constant): 210 ± 10 nM
stoichiometry coefficient (n), E-NADP^+ ([1]; NADP^+ binding to apo hAR, 10 mM Tris-HCl pH 9.0): 1.05 ± 0.03
fold higher affinity of NADP^+ than NADPH for hAR ([1]; fluorescence quenching data, oxidized vs reduced cofactor): 2 fold
Compound: NC(=O)c1ccc[n+]([C@@H]2O[C@H](COP(=O)([O-])OP(=O)(O)OC[C@H]3O[C@@H](n4cnc5c(N)ncnc54)[C@H](OP(=O)(O)O)[C@@H]3O)[C@@H](O)[C@H]2O)c1 [NADP^+]

Kd (hAR•NADP^+; 0.5 μM protein): 104 nM
stoichiometry coefficient (n), binding with hAR•NADP^+ complex (hAR•NADP^+): 1.37 ± 0.05
Kd (hAR•NADPH; 0.5 μM protein): 110 nM
stoichiometry coefficient (n), binding with hAR•NADPH complex (hAR•NADPH): 1.25 ± 0.06
Compound: Cc1cccc(Nc2cc(Cl)nc(SCC(=O)O)n2)c1C [WY 14,643, [4-Chloro-6-(2,3-xylidino)-2-pyrimidinylthio]acetic Acid]
Kii (intercept inhibition constant) ([2]; forward reaction (reduction of DL-glyceraldehyde)): 1.8 µM
Ki ([2]; forward reaction (reduction of DL-glyceraldehyde), read-out: Kis (the slope inhibition constant)): 1800 nM
mode of inhibition ([2]; oxidation of benzyl alcohol): pure non-competitive
pattern of inhibition ([2]; with respect to the reduction of DL-glyceraldehyde): classical non-competitive
increased capacity in oxidization of palmitoyl-coenzyme A (rat livers): 18 fold
